Data from patent publication US20210045385A1, “PYRIDAZINONE-SUBSTITUTED KETOXIMES AS HERBICIDES” (FMC Corporation, priority 2018, published 2021).

What was measured:
Format in all cases: in vivo
corn (Zea mays) = experiment: Test A postemergence, visual plant response rating; details: for Corn plant response rating (0 to 100 scale): 500 g ai/ha, postemergence, 0 is no effect, 100 is complete control; for Corn plant response rating: Postemergence, 125 g ai/ha, 0 to 100 scale (0 no effect, 100 complete control)
Excerpt: (§1) Seeds of plant species selected from barnyardgrass (Echinochloa crus-galli), kochia (Kochia scoparia), ragweed (common ragweed, Ambrosia elatior), Italian ryegrass (Lolium multiflorum), foxtail, giant (giant foxtail, Setaria faberii), foxtail, green (green foxtail, Setaria viridis), and pigweed (Amaranthus retroflexus) were planted into a blend of loam soil and sand and treated preemergence with a directed soil spray using test chemicals formulated in a non-phytotoxic solvent mixture which included a surfactant.
(§2) At the same time, plants selected from these weed species and also wheat (Triticum aestivum), corn (Zea mays), blackgrass (Alopecurus myosuroides), and galium (catchweed bedstraw, Galium aparine) were planted in pots containing the same blend of loam soil and sand and treated with postemergence applications of test chemicals formulated in the same manner. Plants ranged in height from 2 to 10 cm and were in the one- to two-leaf stage for the postemergence treatment. Treated plants and untreated controls were maintained in a greenhouse for approximately 10 days, after which time all treated plants were compared to untreated controls and visually evaluated for injury. Plant response ratings, summarized in Table A, are based on a 0 to 100 scale where 0 is no effect and 100 is complete control. A dash (-) response means no test result.

[1] = test system: ragweed (common ragweed, Ambrosia elatior); experiment: Test A postemergence, visual plant response rating; details: for Ragweed plant response rating (0 to 100 scale): 500 g ai/ha, postemergence, 0 is no effect, 100 is complete control; for Ragweed plant response rating: Postemergence, 125 g ai/ha, 0 to 100 scale (0 no effect, 100 complete control)
Excerpt: as §1, §2

[2] = test system: galium (catchweed bedstraw, Galium aparine); experiment: Test A postemergence, visual plant response rating; details: for Galium plant response rating (0 to 100 scale): 500 g ai/ha, postemergence, 0 is no effect, 100 is complete control; for Galium plant response rating: Postemergence, 125 g ai/ha, 0 to 100 scale (0 no effect, 100 complete control)
Excerpt: as §1, §2

[3] = test system: foxtail, giant (giant foxtail, Setaria faberii); experiment: Test A postemergence, visual plant response rating; details: for Foxtail, Giant plant response rating (0 to 100 scale): 500 g ai/ha, postemergence, 0 is no effect, 100 is complete control; for Foxtail, Giant plant response rating: Postemergence, 125 g ai/ha, 0 to 100 scale (0 no effect, 100 complete control)
Excerpt: as §1, §2

[4] = test system: Italian ryegrass (Lolium multiflorum); experiment: Test A postemergence, visual plant response rating; details: for Ryegrass, Italian plant response rating (0 to 100 scale): 500 g ai/ha, postemergence, 0 is no effect, 100 is complete control; for Ryegrass, Italian plant response rating: Postemergence, 125 g ai/ha, 0 to 100 scale (0 no effect, 100 complete control)
Excerpt: as §1, §2

kochia (Kochia scoparia) [5] = experiment: Test A postemergence, visual plant response rating; details: for Kochia plant response rating (0 to 100 scale): 500 g ai/ha, postemergence, 0 is no effect, 100 is complete control; for Kochia plant response rating: Postemergence, 125 g ai/ha, 0 to 100 scale (0 no effect, 100 complete control)
Excerpt: as §1, §2

[6] = test system: wheat (Triticum aestivum); experiment: Test A postemergence, visual plant response rating; details: for Wheat plant response rating (0 to 100 scale): 500 g ai/ha, postemergence, 0 is no effect, 100 is complete control; for Wheat plant response rating: Postemergence, 125 g ai/ha, 0 to 100 scale (0 no effect, 100 complete control)
Excerpt: as §1, §2

[7] = test system: blackgrass (Alopecurus myosuroides); experiment: Test A postemergence, visual plant response rating; details: for Blackgrass plant response rating (0 to 100 scale): 500 g ai/ha, postemergence, 0 is no effect, 100 is complete control; for Blackgrass plant response rating: Postemergence, 125 g ai/ha, 0 to 100 scale (0 no effect, 100 complete control)
Excerpt: as §1, §2

[8] = test system: barnyardgrass (Echinochloa crus-galli); experiment: Test A postemergence, visual plant response rating; details: for Barnyardgrass plant response rating (0 to 100 scale): 500 g ai/ha, postemergence, 0 is no effect, 100 is complete control; for Barnyardgrass plant response rating: Postemergence, 125 g ai/ha, 0 to 100 scale (0 no effect, 100 complete control)
Excerpt: as §1, §2

[9] = test system: pigweed (Amaranthus retroflexus); experiment: Test A postemergence, visual plant response rating; details: for Pigweed plant response rating (0 to 100 scale): 500 g ai/ha, postemergence, 0 is no effect, 100 is complete control; for Pigweed plant response rating: Postemergence, 125 g ai/ha, 0 to 100 scale (0 no effect, 100 complete control)
Excerpt: as §1, §2

[10] = test system: ducksalad (Heteranhera limosa); experiment: Test B flooded paddy test, visual plant response rating; details: 250 g ai/ha, Flood, applied to paddy water, 2-leaf stage, evaluated after 13 to 15 days
Description: (§3) Plant species in the flooded paddy test selected from rice (Oryza sativa), sedge, umbrella (small-flower umbrella sedge, Cyperus difformis), ducksalad (Heteranhera limosa), and barnyardgrass (Echinochloa crus-galli) were grown to the 2-leaf stage for testing. At time of treatment, test pots were flooded to 3 cm above the soil surface treated by application of test compounds directly to the paddy water, and then maintained at that water depth for the duration of the test. Treated plants and controls were maintained in a greenhouse for 13 to 15 days, after which time all species were compared to controls and visually evaluated. […] A dash (-) response means no test result.

[11] = test system: sedge, umbrella (small-flower umbrella sedge, Cyperus difformis); experiment: as above; details: 250 g ai/ha, Flood, applied to paddy water, 2-leaf stage, evaluated after 13 to 15 days
Description: as §3

rice (Oryza sativa) = experiment: as above; details: 250 g ai/ha, Flood, applied to paddy water, 2-leaf stage, evaluated after 13 to 15 days
Description: as §3

[12] = test system: barnyardgrass (Echinochloa crus-galli); experiment: as above; details: 250 g ai/ha, Flood, applied to paddy water, 2-leaf stage, evaluated after 13 to 15 days
Description: as §3

[13] = test system: ragweed (common ragweed, Ambrosia elatior); experiment: Test A preemergence, visual plant response rating
Excerpt: as §1, §2

[14] = test system: foxtail, giant (giant foxtail, Setaria faberii); experiment: Test A preemergence, visual plant response rating; details: for Foxtail, Giant plant response rating: 125 g ai/ha, preemergence, 0 to 100 scale, 0 no effect, 100 complete control; for Foxtail, Giant plant response rating (0 to 100 scale): 500 g ai/ha Preemergence, approx. 10 days
Excerpt: as §1, §2

[15] = test system: Italian ryegrass (Lolium multiflorum); experiment: Test A preemergence, visual plant response rating; details: for Ryegrass, Italian plant response rating: 125 g ai/ha, preemergence, 0 to 100 scale, 0 no effect, 100 complete control; for Ryegrass, Italian plant response rating (0 to 100 scale): 500 g ai/ha Preemergence, approx. 10 days
Excerpt: as §1, §2

kochia (Kochia scoparia) [16] = experiment: Test A preemergence, visual plant response rating; details: for Kochia plant response rating: 125 g ai/ha, preemergence, 0 to 100 scale, 0 no effect, 100 complete control; for Kochia plant response rating (0 to 100 scale): 500 g ai/ha Preemergence, approx. 10 days
Excerpt: as §1, §2

[17] = test system: barnyardgrass (Echinochloa crus-galli); experiment: Test A preemergence, visual plant response rating; details: for Barnyardgrass plant response rating: 125 g ai/ha, preemergence, 0 to 100 scale, 0 no effect, 100 complete control; for Barnyardgrass plant response rating (0 to 100 scale): 500 g ai/ha Preemergence, approx. 10 days
Excerpt: as §1, §2

[18] = test system: pigweed (Amaranthus retroflexus); experiment: Test A preemergence, visual plant response rating; details: for Pigweed plant response rating: 125 g ai/ha, preemergence, 0 to 100 scale, 0 no effect, 100 complete control; for Pigweed plant response rating (0 to 100 scale): 500 g ai/ha Preemergence, approx. 10 days
Excerpt: as §1, §2

CON=C(c1c(O)c(C)nn(C)c1=O)c1csc2ccccc12 (single isomer, unassigned) [Compound 46]
Corn plant response rating (0 to 100 scale) (corn (Zea mays)): 0
Corn plant response rating (corn (Zea mays)): 0
Ragweed plant response rating (0 to 100 scale) [1]: 70
Ragweed plant response rating [1]: 40
Galium plant response rating (0 to 100 scale) [2]: 60
Galium plant response rating [2]: 30
Foxtail, Giant plant response rating (0 to 100 scale) [3]: 0
Foxtail, Giant plant response rating [3]: 0
Ryegrass, Italian plant response rating (0 to 100 scale) [4]: 10
Ryegrass, Italian plant response rating [4]: 10
Kochia plant response rating (0 to 100 scale) (kochia (Kochia scoparia) [5]): 0
Kochia plant response rating (kochia (Kochia scoparia) [5]): 0
Wheat plant response rating (0 to 100 scale) [6]: 0
Wheat plant response rating [6]: 0
Blackgrass plant response rating (0 to 100 scale) [7]: 0
Blackgrass plant response rating [7]: 0
Barnyardgrass plant response rating (0 to 100 scale) [8]: 0
Barnyardgrass plant response rating [8]: 0
Pigweed plant response rating (0 to 100 scale) [9]: 20
Pigweed plant response rating [9]: 10
Plant response rating, Ducksalad (0 to 100 scale, 0 is no effect, 100 is complete control) [10]: 0
Plant response rating, Sedge, Umbrella (0 to 100 scale, 0 is no effect, 100 is complete control) [11]: 0
Plant response rating, Rice (0 to 100 scale, 0 is no effect, 100 is complete control) (rice (Oryza sativa)): 0
Plant response rating, Barnyardgrass (0 to 100 scale, 0 is no effect, 100 is complete control) [12]: 0
Ragweed plant response rating ([13]; 125 g ai/ha, preemergence, 0 to 100 scale, 0 no effect, 100 complete control): 20
Ragweed plant response rating (0 to 100 scale) ([13]; 500 g ai/ha Preemergence, approx. 10 days): 50
Foxtail, Giant plant response rating [14]: 0
Foxtail, Giant plant response rating (0 to 100 scale) [14]: 0
Ryegrass, Italian plant response rating [15]: 0
Ryegrass, Italian plant response rating (0 to 100 scale) [15]: 0
Kochia plant response rating (kochia (Kochia scoparia) [16]): 0
Kochia plant response rating (0 to 100 scale) (kochia (Kochia scoparia) [16]): 30
Barnyardgrass plant response rating [17]: 0
Barnyardgrass plant response rating (0 to 100 scale) [17]: 0
Pigweed plant response rating [18]: 0
Pigweed plant response rating (0 to 100 scale) [18]: 10

CO/N=C(/c1c(OC(C)=O)c(Cl)nn(C)c1=O)c1cccc2ccccc12 [Compound 132]
Corn plant response rating (0 to 100 scale) (corn (Zea mays)): 10
Corn plant response rating (corn (Zea mays)): 10
Ragweed plant response rating (0 to 100 scale) [1]: 90
Ragweed plant response rating [1]: 90
Galium plant response rating (0 to 100 scale) [2]: 100
Galium plant response rating [2]: 90
Foxtail, Giant plant response rating (0 to 100 scale) [3]: 60
Foxtail, Giant plant response rating [3]: 40
Ryegrass, Italian plant response rating (0 to 100 scale) [4]: 20
Ryegrass, Italian plant response rating [4]: 10
Kochia plant response rating (0 to 100 scale) (kochia (Kochia scoparia) [5]): 80
Kochia plant response rating (kochia (Kochia scoparia) [5]): 60
Wheat plant response rating (0 to 100 scale) [6]: 0
Wheat plant response rating [6]: 0
Blackgrass plant response rating (0 to 100 scale) [7]: 60
Blackgrass plant response rating [7]: 40
Barnyardgrass plant response rating (0 to 100 scale) [8]: 60
Barnyardgrass plant response rating [8]: 20
Pigweed plant response rating (0 to 100 scale) [9]: 70
Pigweed plant response rating [9]: 40
Plant response rating, Ducksalad (0 to 100 scale, 0 is no effect, 100 is complete control) [10]: 25
Plant response rating, Sedge, Umbrella (0 to 100 scale, 0 is no effect, 100 is complete control) [11]: 15
Plant response rating, Rice (0 to 100 scale, 0 is no effect, 100 is complete control) (rice (Oryza sativa)): 0
Plant response rating, Barnyardgrass (0 to 100 scale, 0 is no effect, 100 is complete control) [12]: 0
Foxtail, Giant plant response rating [14]: 40
Foxtail, Giant plant response rating (0 to 100 scale) [14]: 90
Ryegrass, Italian plant response rating [15]: 0
Ryegrass, Italian plant response rating (0 to 100 scale) [15]: 0
Kochia plant response rating (kochia (Kochia scoparia) [16]): 90
Kochia plant response rating (0 to 100 scale) (kochia (Kochia scoparia) [16]): 90
Barnyardgrass plant response rating [17]: 70
Barnyardgrass plant response rating (0 to 100 scale) [17]: 80
Pigweed plant response rating [18]: 80
Pigweed plant response rating (0 to 100 scale) [18]: 80

CON=C(c1cc(Cl)ccc1Cl)c1c(O)c(C)nn(C)c1=O [Compound 90]
Corn plant response rating (0 to 100 scale) (corn (Zea mays)): 30
Corn plant response rating (corn (Zea mays)): 20
Ragweed plant response rating (0 to 100 scale) [1]: 90
Ragweed plant response rating [1]: 70
Galium plant response rating (0 to 100 scale) [2]: 90
Galium plant response rating [2]: 90
Foxtail, Giant plant response rating (0 to 100 scale) [3]: 80
Foxtail, Giant plant response rating [3]: 30
Ryegrass, Italian plant response rating (0 to 100 scale) [4]: 90
Ryegrass, Italian plant response rating [4]: 80
Kochia plant response rating (0 to 100 scale) (kochia (Kochia scoparia) [5]): 80
Kochia plant response rating (kochia (Kochia scoparia) [5]): 60
Wheat plant response rating (0 to 100 scale) [6]: 40
Wheat plant response rating [6]: 30
Blackgrass plant response rating (0 to 100 scale) [7]: 90
Blackgrass plant response rating [7]: 80
Barnyardgrass plant response rating (0 to 100 scale) [8]: 60
Barnyardgrass plant response rating [8]: 20
Pigweed plant response rating (0 to 100 scale) [9]: 90
Pigweed plant response rating [9]: 60
Plant response rating, Ducksalad (0 to 100 scale, 0 is no effect, 100 is complete control) [10]: 0
Plant response rating, Sedge, Umbrella (0 to 100 scale, 0 is no effect, 100 is complete control) [11]: 0
Plant response rating, Rice (0 to 100 scale, 0 is no effect, 100 is complete control) (rice (Oryza sativa)): 0
Plant response rating, Barnyardgrass (0 to 100 scale, 0 is no effect, 100 is complete control) [12]: 0
Foxtail, Giant plant response rating [14]: 50
Foxtail, Giant plant response rating (0 to 100 scale) [14]: 90
Ryegrass, Italian plant response rating [15]: 60
Ryegrass, Italian plant response rating (0 to 100 scale) [15]: 90
Kochia plant response rating (kochia (Kochia scoparia) [16]): 50
Kochia plant response rating (0 to 100 scale) (kochia (Kochia scoparia) [16]): 70
Barnyardgrass plant response rating [17]: 60
Barnyardgrass plant response rating (0 to 100 scale) [17]: 80
Pigweed plant response rating [18]: 90
Pigweed plant response rating (0 to 100 scale) [18]: 100
